# Test results published in paper PMC10179080, “In Vivo and In Vitro Characterization of Close Analogs of Compound KA-11, a New Antiseizure Drug Candidate” (International Journal of Molecular Sciences, 2023).
# Key:
# [1] = target: 5-HT1A (agonist radioligand) (Homo sapiens, UniProt P08908); assay: Radioligand binding, 5-HT1A
# [2] = test system: Na^+ channel (site 2); assay: Radioligand binding, Na+ channel (site 2); design: species or system rat; details: 10 µM
# Protocol: (§1) Dysfunction of both sodium and calcium ion channels is known to be one of the crucial reasons behind the pathogenesis of seizures. Consequently, these ion channels are molecular targets for several clinically important ASDs such as lacosamide, lamotrigine, carbamazepine, oxcarbazepine and compounds currently under preclinical and clinical studies. Thus, for KA-228 and KA-232, we tested herein their binding profile toward the aforementioned ion channels at concentrations of 10 and 100 µM (Table 3). […] Apart from in vitro studies focused on explaining the mechanism of action, KA-232 was additionally tested for its interaction with the potassium channel (hERG) which is recognized as one of the most important ‘off-targets’ responsible for harmful arrhythmogenic activity. Thus, the interaction of potential drug candidates with hERG must be excluded at an early stage of development.
# (§2) Binding studies were carried out commercially in Eurofins Laboratories (Poitiers, France or New Taipei City, Taiwan).
# [3] = Stability in PBS buffer during PAMPA incubation; assay type: physicochemical; details: 5 h incubation in PAMPA plate, PBS pH 7.4, RT
# [4] = target: T1, Potassium channel (hERG) (Homo sapiens, UniProt Q12809); assay: Radioligand binding, potassium channel (hERG); details: 100 µM; KA-11 value not published before
# T1 construct: host or cells: HEK-293 cells
# T1 sequence (Q12809 whole entry): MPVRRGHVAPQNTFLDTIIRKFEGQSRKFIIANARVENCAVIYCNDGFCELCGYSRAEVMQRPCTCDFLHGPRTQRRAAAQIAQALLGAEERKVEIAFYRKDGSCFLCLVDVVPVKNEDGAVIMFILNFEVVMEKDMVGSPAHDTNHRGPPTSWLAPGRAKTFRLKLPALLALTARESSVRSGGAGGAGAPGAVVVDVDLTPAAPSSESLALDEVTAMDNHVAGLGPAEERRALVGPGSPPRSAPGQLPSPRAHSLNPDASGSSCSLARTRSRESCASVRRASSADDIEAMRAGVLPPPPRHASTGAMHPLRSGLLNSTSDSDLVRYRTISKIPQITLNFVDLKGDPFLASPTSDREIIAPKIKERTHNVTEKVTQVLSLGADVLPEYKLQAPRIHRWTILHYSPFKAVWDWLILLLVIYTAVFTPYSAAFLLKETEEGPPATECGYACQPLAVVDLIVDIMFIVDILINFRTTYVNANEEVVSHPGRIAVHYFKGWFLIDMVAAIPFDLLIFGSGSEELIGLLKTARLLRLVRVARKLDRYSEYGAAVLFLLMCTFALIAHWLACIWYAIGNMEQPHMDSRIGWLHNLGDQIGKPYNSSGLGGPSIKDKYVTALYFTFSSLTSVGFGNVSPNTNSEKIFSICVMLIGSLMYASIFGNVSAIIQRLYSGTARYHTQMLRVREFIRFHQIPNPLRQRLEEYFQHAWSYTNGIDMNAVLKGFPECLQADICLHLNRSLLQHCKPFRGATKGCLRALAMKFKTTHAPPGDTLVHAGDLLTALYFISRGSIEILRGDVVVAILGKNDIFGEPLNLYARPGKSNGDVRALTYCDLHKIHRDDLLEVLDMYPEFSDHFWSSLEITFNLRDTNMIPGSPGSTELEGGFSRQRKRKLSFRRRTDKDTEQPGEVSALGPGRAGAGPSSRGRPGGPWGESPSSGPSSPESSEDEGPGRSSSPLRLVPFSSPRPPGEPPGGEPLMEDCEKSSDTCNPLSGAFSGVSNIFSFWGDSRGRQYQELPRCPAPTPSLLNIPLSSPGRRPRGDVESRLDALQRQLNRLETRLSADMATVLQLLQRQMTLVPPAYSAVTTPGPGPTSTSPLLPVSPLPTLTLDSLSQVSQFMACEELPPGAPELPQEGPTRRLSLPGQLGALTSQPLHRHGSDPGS
# Protocol: as §1, §2
# [5] = target: T2, hERG potassium channel (Homo sapiens, UniProt Q12809); assay: Radioligand binding, potassium channel (hERG); details: human, human recombinant HEK-293 cells expressing hERG, KA-11 value not published before, read-out: % Inhibition of Control Specific Binding
# T2 construct: host or cells: HEK-293 cells
# T2 sequence (Q12809 whole entry): as above
# Protocol: as §1, §2
# [6] = test system: Calcium Cav1.2 channel (verapamil site, antagonist radioligand); assay: Radioligand binding, Cav1.2 verapamil site; design: species or system rat; details: 10 µM
# Protocol: as §1, §2
# [7] = in vitro; details: PAMPA
# Protocol: Pre-coated PAMPA Plate System Gentest™ was purchased from Corning (Tewksbury, MA, USA). […] The luminescent signal and the absorbances were measured by using a microplate reader EnSpire PerkinElmer (Waltham, MA, USA). The LC/MS/MS analyses used in PAMPA and metabolic stability assays were obtained on Waters ACQUITY™ TQD system (Waters, Milford, CT, USA).
# [8] = Chimney test; details: male, albino Swiss, mouse, in vivo, ip, mice
# Protocol: The experiments were conducted on adult male albino Swiss mice weighing 22–26 g. The animals were kept in colony cages under standardized laboratory conditions: natural light–dark cycle 12/12 h, temperature 20–24 °C, air humidity 45–65% and free access to tap water and food (chow pellets). After 7 days of adaptation to laboratory conditions, the animals were randomly assigned to experimental groups consisting of 8 mice. The experimental procedures described herein were approved by the Local Ethics Committee in Lublin, Poland (approval numbers: 71/2020 and 13/2021), and were conducted in accordance with EU Directive 2010/63/EU for animal experiments. All efforts were made to minimize animal suffering and to use only the number of animals necessary to produce reliable scientific data according to the 3Rs rule.
# The chimney test of Boissier et al. was used to quantify the acute adverse-effect potential of KA-228 and KA-232 on motor performance in mice. […]
# The ED50 or TD50 values for tested substances in the acute animal models of seizures were calculated using the computer log-probit analysis. Subsequently, the ED50 and TD50 values (±SEM) were statistically analyzed using one-way analysis of variance (ANOVA) followed by the post hoc Dunnett’s test for multiple comparisons. […] The results obtained from the acute ivPTZ test and grip strength test were evaluated by a Student’s t test. […]
# [9] = target: T3, TRPV1 (VR1) (antagonist effect) (Homo sapiens, UniProt Q8NER1); assay: TRPV1 antagonist functional assay (intracellular Ca2+, CHO cells); assay type: cell-based; details: 10 µM
# T3 construct: host or cells: CHO cells
# T3 sequence (Q8NER1 whole entry): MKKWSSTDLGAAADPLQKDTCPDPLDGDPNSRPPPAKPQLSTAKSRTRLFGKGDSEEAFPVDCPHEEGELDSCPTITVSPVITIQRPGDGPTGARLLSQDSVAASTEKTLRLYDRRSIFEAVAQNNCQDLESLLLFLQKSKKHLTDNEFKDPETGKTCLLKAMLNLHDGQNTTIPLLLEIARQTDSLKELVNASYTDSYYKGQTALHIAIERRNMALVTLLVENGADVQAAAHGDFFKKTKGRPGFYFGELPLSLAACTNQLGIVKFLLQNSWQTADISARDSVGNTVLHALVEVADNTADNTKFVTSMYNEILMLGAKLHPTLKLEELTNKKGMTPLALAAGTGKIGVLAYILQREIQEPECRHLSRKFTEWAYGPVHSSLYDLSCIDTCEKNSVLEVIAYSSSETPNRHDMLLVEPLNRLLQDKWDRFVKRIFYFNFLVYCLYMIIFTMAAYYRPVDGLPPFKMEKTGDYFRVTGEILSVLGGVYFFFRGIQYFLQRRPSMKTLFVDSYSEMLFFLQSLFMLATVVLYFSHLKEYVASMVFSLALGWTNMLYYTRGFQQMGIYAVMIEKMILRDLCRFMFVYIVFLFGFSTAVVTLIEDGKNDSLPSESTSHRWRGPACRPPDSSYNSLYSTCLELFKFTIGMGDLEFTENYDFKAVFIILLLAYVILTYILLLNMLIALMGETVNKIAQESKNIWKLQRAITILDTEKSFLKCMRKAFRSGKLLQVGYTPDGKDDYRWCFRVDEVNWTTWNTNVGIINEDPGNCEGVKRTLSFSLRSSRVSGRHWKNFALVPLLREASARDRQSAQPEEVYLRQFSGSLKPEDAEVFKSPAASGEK
# Protocol: as §2
# 5-HT1A (agonist radioligand), sequence (P08908 whole entry): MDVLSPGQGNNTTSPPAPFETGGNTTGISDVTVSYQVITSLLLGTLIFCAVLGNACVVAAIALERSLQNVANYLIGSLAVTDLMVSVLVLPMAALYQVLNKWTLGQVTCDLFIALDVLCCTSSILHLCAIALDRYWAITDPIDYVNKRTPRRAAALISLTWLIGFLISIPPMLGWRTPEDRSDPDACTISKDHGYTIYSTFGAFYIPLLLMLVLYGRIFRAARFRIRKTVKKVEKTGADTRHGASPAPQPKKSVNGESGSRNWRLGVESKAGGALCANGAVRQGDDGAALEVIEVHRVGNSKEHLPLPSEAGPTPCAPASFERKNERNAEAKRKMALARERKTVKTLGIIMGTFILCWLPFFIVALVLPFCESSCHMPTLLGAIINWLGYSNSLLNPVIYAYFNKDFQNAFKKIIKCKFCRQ
compound,measurement,setting,value
"CC(C(=O)N1CCN(c2cccc(C(F)(F)F)c2)CC1)N1C(=O)CC(N(C)C)C1=O.Cl (centres unmarked) [KA-232, 3-(Dimethylamino)-1-(1-oxo-1-(4-(3-(trifluoromethyl)phenyl)piperazin-1-yl)propan-2-yl)pyrrolidine-2,5-dione hydrochloride]",% Inhibition of Control Specific Binding,[1]; 10 µM,did not interact
same,inhibition at 10 µM,[1]; read-out: % Inhibition of Control Specific Binding,9.6%
same,% Inhibition of Control Specific Binding,[2],3.8%
same,stability in physiological buffer,[3],"some products of KA-232 degradation at the pyrrolidine-2,5-dione moiety were observed"
same,% Inhibition of Control Specific Binding,[4],did not interact
same,"inhibition at 60 min, 100 µM",[5],18.3%
same,% Inhibition of Control Specific Binding,[6],−2.8 (10) %
same,Papp at 5 h,[7],10.2 ± 1.65 ×10⁻⁶ cm/s
same,TD50 at 30 min,[8],163 ± 31.2 mg/kg
same,"% Inhibition of control specific binding (functional, antagonist effect)",[9],did not inhibit
same,inhibition at 10 µM,"[9]; CHO, read-out: % Inhibition of control specific binding (functional, antagonist effect)",10.5%
